In ChEMBL document CHEMBL1159196, “Lignans interfering with 5 alpha-dihydrotestosterone binding to human sex hormone-binding globulin” (J Nat Prod, 1998) one finds Ka and IC50 data, which are given here for 7 compounds.

The target of experiment [1] is T1, Sex hormone-binding globulin (Homo sapiens) (UniProt P04278).
T1 sequence (whole entry): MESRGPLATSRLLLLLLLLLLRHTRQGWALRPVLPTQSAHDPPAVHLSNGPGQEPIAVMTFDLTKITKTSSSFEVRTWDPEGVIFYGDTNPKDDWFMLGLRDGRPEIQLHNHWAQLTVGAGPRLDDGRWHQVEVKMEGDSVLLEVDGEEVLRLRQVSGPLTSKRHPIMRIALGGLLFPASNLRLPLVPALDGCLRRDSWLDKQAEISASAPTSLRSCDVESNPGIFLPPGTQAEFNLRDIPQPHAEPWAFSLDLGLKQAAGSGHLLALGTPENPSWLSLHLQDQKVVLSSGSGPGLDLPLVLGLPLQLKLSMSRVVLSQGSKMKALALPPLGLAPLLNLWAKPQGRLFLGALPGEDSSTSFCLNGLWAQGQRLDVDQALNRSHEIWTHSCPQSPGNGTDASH
In words: Binding affinity to SHBG.

The target of experiment [2] is T2, Sex hormone-binding globulin (Homo sapiens, UniProt P04278).
T2 sequence (P04278 whole entry): T1 sequence (whole entry)
In words: Displacement of [3H]DHT from human serum SHBG.

The target in experiment [3] is T1, Sex hormone-binding globulin (Homo sapiens). Put plainly: Binding affinity to human serum SHBG at 4 degC by competitive inhibition assay.
The target is the same in experiment [4]. Put plainly: Binding affinity to SHBG at 4 degC.

The compound `C[C@]12CCC(=O)C[C@@H]1CC[C@@H]1[C@@H]2CC[C@]2(C)[C@@H](O)CC[C@@H]12` returned a Ka in experiment [1] of 2 ×10⁹ /M.
`O=C1OCC(Cc2cccc(O)c2)C1Cc1cccc(O)c1` (racemic) had an IC50 in experiment [2] of 620 µM.
As for `C[C@]12CC[C@@H]3c4ccc(O)cc4CC[C@H]3[C@@H]1CC[C@@H]2O`, the Ka in experiment [1] came out at 5 ×10⁸ /M.
The compound `COc1cc(C[C@H]2COC(=O)[C@@H]2Cc2ccc(O)c(OC)c2)ccc1O` [MATAIRESINOL] gave an IC50 in experiment [2] of 52 µM.
The same measure, in the same setting: for `COc1cc(C[C@@H](CO)[C@H](CO)Cc2ccc(O)c(OC)c2)ccc1O` [(+)-SECOISOLARICIRESINOL] the value was 230 µM.
`C[C@]12CC[C@H]3[C@@H](CCC4=CC(=O)CC[C@@]43C)[C@@H]1CC[C@@H]2O` had a Ka in experiment [1] of 1 ×10⁹ /M.
Consider `COc1cc(C[C@H]2COC[C@@H]2Cc2ccc(O)c(OC)c2)ccc1O`, for which the Ka worked out at 3.2 ×10⁶ /M in experiment [3] and 0.98 ×10⁹ /M in experiment [4].
